Source: US9410956B1, “Micro-RNA profiling in ovarian cancer” (University of South Florida, priority 2008, dated 2016)

Columns and labels:
PTEN [1] = assay: Immunoblot of PTEN protein after knockdown of miR-214 in A2780CP cells; format: cell-based, human; settings: 72 h
Method: (§1) FIG. 2B: An image showing miR-214 reduces PTEN protein but not mRNA levels. HIOSE-80 cells (left panels) were transfected with pcDNA3.1/V5-His-Topo-miR-214, -miR199a* and vector alone and immunoblotted with indicated antibodies (panels 1-4). The expression of miR-214 and miR-199a* was determined by qRT-PCR (panels 5 and 6). PTEN mRNA level was measured by RT-PCR (panel 8). U6 (panel 7) and GAPDH (bottom panel) were used for controls. Middle and right panels show knockdown of miR-214 inducing PTEN expression. A2780CP cells were transfected with antisense 2′-O-methyl oligonucleotide targeting miR-214 at concentration of […] (6 well plate) with Lipofectamine 2000. Anti-miR199a* and scramble 2′-O-methyl oligonucleotide were used as controls. After incubation of 72 h, cells were lysed and immunoblotted with indicated antibodies (middle).
(§2) 2′-O-methyl (2′-O-me) oligoribonucleotides were synthesized by Integrated DNA Technologies. The sequences of 2′-O-methyl-anti-miR-214 and -miR-199a* are: 5′-[…]-3′ (SEQ ID NO: 1) and 5′-[…] UGUA-3′ (SEQ ID NO: 3). 2′-O-me-scrambled miR (5′-[…]-3′) (SEQ ID NO: 15) was used as a control. Cells were grown in 6-well plate (1.7×10^6 cells/well) for 24 h and transfected with 150 pMol of 2′-O-me oligoribonucleotides per well using Lipofectamine 2000. RNA and protein were extracted after 72 h transfection. […]

A2780CP cells [2] = assay: Cisplatin-induced apoptosis after knockdown of miR-214 (MTT, subG1 flow cytometry); format: cell-based, human; settings: 20 uM cisplatin
Method: (§3) FIG. 4B: An image showing an MTT assay. The 2′-O-me-anti-miR-214- or scramble 2′-O-me-transfected A2780CP cells were treated with 20 uM of cisplatin or DMSO vehicle for the indicated times and examined for cell viability.
FIG. 4C: An image showing flow cytometry. Indicated cells were treated with cisplatin or DMSO for 12 h and the subG1 population was identified by flow cytometry.
(§4) A2780CP cells were transfected with 2′-O-methyl-anti-miR-214. The cells transfected with 2′-O-methyl-scramble-miR were used as control. […] Further, the cells were treated with cisplatin or vehicle DMSO.

miR-214 = assay: qRT-PCR of miR-214 level after 2′-O-methyl oligonucleotide transfection; format: cell-based, human; settings: A2780CP cells, 72 h after transfection
Method: FIG. 4A: An image showing A2780CP, a cisplatin-resistant cell line and expressing elevated levels of endogenous miR-214, was transfected with 2′-O-me-anti-miR-214 or scramble 2′-O-me oligonucleotides and assayed with qRT-PCR with primers of miR-214 (top) and U6 (bottom).
Expression of miRNAs was also analyzed by RNase protection or mirVana qRT-PCR miRNA detection assay. For RNase protection assay, enriched small RNA was purified using the miRVana miRNA Isolation Kit (Ambion). The mirVana™ miRNA probe construction kit (Ambion) was used to synthesize the ^32P-labeled miR-214 probe. Probe hybridization and RNase protection were then carried out using the mirVana™ miRNA detection kit (Ambion) according to manufacturer's instructions. After hybridization and RNase treatment, the double-strand products were resolved in a 15% polyacrylamide 8 M urea denaturing gel and visualized using phosphoimaging and autoradiography. mirVana qRT-PCR was performed according to the manufacturer's protocol (Ambion). PCR products were analyzed by electrophoresis on a 7.5% polyacrylamide gel in 0.5×TBE and visualized by ethidium bromide staining.
2′-O-methyl (2′-O-me) oligoribonucleotides were synthesized by Integrated DNA Technologies. The sequences of 2′-O-methyl-anti-miR-214 and -miR-199a* are: 5′-[…]-3′ (SEQ ID NO: 1) and 5′-[…] UGUA-3′ (SEQ ID NO: 3). […]

A2780CP cells [3] = assay: MTT cell viability assay after knockdown of miR-214; format: cell-based, human; settings: knockdown of miR-214 alone, 150 pMol oligonucleotide per well
Method: as §3
2′-O-methyl (2′-O-me) oligoribonucleotides were synthesized by Integrated DNA Technologies. The sequences of 2′-O-methyl-anti-miR-214 and -miR-199a* are: 5′-[…]-3′ (SEQ ID NO: 1) and 5′-[…] UGUA-3′ (SEQ ID NO: 3). 2′-O-me-scrambled miR (5′-[…]-3′) (SEQ ID NO: 15) was used as a control. Cells were grown in 6-well plate (1.7×10^6 cells/well) for 24 h and transfected with 150 pMol of 2′-O-me oligoribonucleotides per well using Lipofectamine 2000. RNA and protein were extracted after 72 h transfection.
as §4

Akt = assay: Immunoblot of phospho-Akt and Akt substrates after knockdown of miR-214 in A2780CP cells; format: cell-based, human; settings: 72 h
Method: as §1, §2

PTEN [4] = settings: ovarian cancer cell lines (Schondorf et al. 2004); cited from earlier work
ovarian cancer = settings: adjuvant chemotherapy, ovarian cancer patients (Aghajanian 2004); cited from earlier work

## 5′-CUGCCUGUCUGUGCCUGCUGU-3′ (all 2'-O-methyl, backbone not given here) [2′-O-methyl-anti-miR-214, antisense 2′-O-methyl oligoribonucleotide targeting miR-214]
PTEN [1]
  protein level of PTEN: increased
A2780CP cells [2]
  sensitization to cisplatin-induced apoptosis: considerably sensitized
miR-214
  level of miR-214: significantly decreased
A2780CP cells [3]
  reduction of cell survival: about 20%
Akt
  phosphorylation levels of Akt and Akt substrates GSK3β and p70S6K: decreased

## Nc1ncn([C@H]2C[C@H](O)[C@@H](CO)O2)c(=O)n1 [5-aza-2′ deoxycytidine]
PTEN [4]
  PTEN protein expression: failed to restore

## N.N.[Cl][Pt][Cl] [cisplatin]
Ovarian cancer
  clinical response (share of patients): approximately 80%
